We go through 41 compounds from US12414952B2 (Merck Sharp & Dohme LLC, priority 2018, dated 2025).

In assay [1] the target is human A2a adenosine receptor (Homo sapiens (Human), UniProt P29274). The assay can be described thus: A2a binding affinity using radioligand binding, Method (A). The note with it: Method (A): [3H]SCH58261 filtration binding. The source says: The A2a receptor affinity binding assay measured the amount of binding of a tritiated ligand with high affinity for the A2a adenosine receptor to membranes made from HEK293 or CHO cells recombinantly expressing the human A2a adenosine receptor, in the presence of varying concentrations of a compound of the invention. The data were generated using either filtration binding or a homogenous scintillation proximity assay (SPA).
Sequence of human A2a adenosine receptor (P29274 whole entry): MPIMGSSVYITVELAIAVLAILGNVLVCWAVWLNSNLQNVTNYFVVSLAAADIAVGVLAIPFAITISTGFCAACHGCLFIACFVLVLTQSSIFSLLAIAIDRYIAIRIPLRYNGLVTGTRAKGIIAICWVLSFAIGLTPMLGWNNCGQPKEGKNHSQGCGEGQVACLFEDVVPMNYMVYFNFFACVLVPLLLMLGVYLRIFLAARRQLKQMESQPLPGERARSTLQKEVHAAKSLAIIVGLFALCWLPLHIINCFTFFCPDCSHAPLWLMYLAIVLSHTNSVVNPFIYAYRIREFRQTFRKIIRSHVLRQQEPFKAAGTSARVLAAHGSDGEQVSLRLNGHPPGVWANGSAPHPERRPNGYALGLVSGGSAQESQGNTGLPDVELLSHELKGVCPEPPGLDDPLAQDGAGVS
Method (A): Measurement of A2a Binding Affinity Using Radioligand Binding
148 μL (5 μg/mL) membranes (Perkin Elmer, Cat. No. RBHA2aM400UA) and 2 μL compounds of the invention to be tested (test compound) were transferred to individual wells of a 96-well polypropylene assay plate and incubated for 15 to 30 min at room temperature. [^3H] SCH58261 ((7-(2-phenylethyl)-5-amino-2-(2-furyl)-pyrazolo-[4,3-e]-1,2,4-triazolo[1,5-c]pyrimidine)) was diluted in assay buffer (50 mM Tris pH 7.4, 10 mM MgCl2, 0.005% Tween20) to a concentration of 4 nM and 50 μL transferred to each well of the assay plate. […] The assay plate was incubated at room temperature for 60 min with agitation. […] Filtering was achieved by aspirating the contents of the assay plate for 5 sec, then washing and aspirating the contents three times with ice-cooled wash buffer (50 mM Tris-HCl pH 7.4, 150 mM NaCl) and allowing the vacuum manifold to dry the plate for […]. The filter plate was incubated for at least 1 h at 55° C. and allowed to dry. The bottom of the filter plate was sealed with backing tape. […] The plate was incubated for at least 20 min, and then the amount of radioactivity remaining in each well was determined using a TopCount® (Perkin Elmer) scintillation counter. After normalization to total and non-specific binding, the percent effect at each compound concentration was calculated. The plot of percent effect versus the log of compound concentration was analyzed electronically using a 4-parameter logistic fit based on the Levenberg-Marquardt algorithm to generate IC50 values.

The target of assay [2] is human A2b adenosine receptor (Homo sapiens (Human), UniProt P29275). As to the kind of experiment: A2b binding affinity, radioligand filtration binding assay. The settings on record: tritiated proprietary A2b antagonist, HEK293 membranes. How it is done:
Measurement of A2b Binding Affinity
The reported affinity of the compounds of the invention for the human A2b adenosine receptor was determined experimentally using a radioligand filtration binding assay. This assay measures the amount of binding of a tritiated proprietary A2b receptor antagonist, in the presence and absence of a compound of the invention, to membranes made from HEK293 cells recombinantly expressing the human A2b adenosine receptor (Perkin Elmer, Cat. No. ES-013-C).
The filter plate was incubated for at least 1 h at 55° C. and allowed to dry. The bottom of the filter plate was then sealed with backing tape. […] The plates were then incubated for at least 20 min, and then the amount of radioactivity remaining in each well was determined using a TopCount® (Perkin Elmer) scintillation counter. After normalization to total and non-specific binding, the percent effect at each compound concentration was calculated. The plot of percent effect versus the log of compound concentration was analyzed electronically using a 4-parameter logistic fit based on the Levenberg-Marquardt algorithm to generate IC50 values.

Sequence of human A2b adenosine receptor (P29275 whole entry): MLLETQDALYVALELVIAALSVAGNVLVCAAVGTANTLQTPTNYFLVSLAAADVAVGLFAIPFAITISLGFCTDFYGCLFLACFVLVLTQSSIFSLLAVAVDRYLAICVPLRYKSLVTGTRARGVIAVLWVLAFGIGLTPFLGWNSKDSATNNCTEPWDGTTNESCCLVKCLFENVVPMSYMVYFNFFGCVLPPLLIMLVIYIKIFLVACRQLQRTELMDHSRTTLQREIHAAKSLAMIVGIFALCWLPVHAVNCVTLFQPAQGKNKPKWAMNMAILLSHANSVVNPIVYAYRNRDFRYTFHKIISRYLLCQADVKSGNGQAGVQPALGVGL

For `Cc1c(-c2ncco2)nc(N)n2nc(CCN3Cc4nnn(C(C)C)c4C(C)C3)nc12` (single isomer, unassigned) [Example 17.8-1, (R or S)-2-(2-(1-isopropyl-7-methyl-1,4,6,7-tetrahydro-5H-[1,2,3]triazolo[4,5-c]pyridin-5-yl)ethyl)-8-methyl-7-(oxazol-2-yl)-[1,2,4]triazolo[1,5-c]pyrimidin-5-amine], the IC50 in assay [1] stood at 0.7 nM; in assay [2] it was 1680 nM.

As for `Cc1c(-c2ncco2)nc(N)n2nc(CCN3Cc4nnn(C(C)C)c4C(C)C3)nc12` (single isomer, unassigned) [Example 17.8-2, (R or S)-2-(2-(1-isopropyl-7-methyl-1,4,6,7-tetrahydro-5H-[1,2,3]triazolo[4,5-c]pyridin-5-yl)ethyl)-8-methyl-7-(oxazol-2-yl)-[1,2,4]triazolo[1,5-c]pyrimidin-5-amine], the IC50 in assay [1] stood at 2.3 nM; in assay [2], 14 nM.

In the case of `Cc1c(-c2ncco2)nc(N)n2nc(CCN3CCn4c(cnc4C(C)C)C3)nc12` [Example 1.10], the IC50 in assay [1] worked out at 2.1 nM; in assay [2] it was 16.2 nM.

As for `Cc1c(-c2ncco2)nc(N)n2nc(CCN3CCn4c(cnc4C4CCC4)C3)nc12` [Example 1.11], the IC50 in assay [1] was found to be 3.6 nM; in assay [2] it was 56.3 nM.

Take `Cc1c(-c2ncco2)nc(N)n2nc(CCN3CCn4c(cnc4C4CC4)C3)nc12` [Example 1.12]: the IC50 was 4.8 nM in assay [1] and 218 nM in assay [2].

On to `Cc1c(-c2ncco2)nc(N)n2nc(CCN3CCc4c(cnn4C4CCC4)C3)nc12` [Example 1.13], for which the IC50 in assay [1] turned out to be 1 nM; in assay [2], 144 nM.

Consider `Cc1c(-c2ncco2)nc(N)n2nc(CCN3CCc4nn(C5CCC5)cc4C3)nc12` [Example 1.14], for which the IC50 in assay [1] turned out to be 6.7 nM; in assay [2] it was 399 nM.

As for `Cc1c(-c2ncco2)nc(N)n2nc(CCN3CCc4c(nnn4C(C)C)C3)nc12` [Example 1.15], the IC50 was 0.1 nM in assay [1] and 402 nM in assay [2].

For the compound `Cc1c(-c2ncco2)nc(N)n2nc(CCN3CCc4c(nnn4C4CC4)C3)nc12` [Example 1.16], the IC50 in assay [1] was 0.3 nM; in assay [2], 111 nM.

As for `Cc1c(-c2ncco2)nc(N)n2nc(CCN3CCc4c(nnn4CC(F)(F)F)C3)nc12` [Example 1.17], the values for the IC50 in assay [1] and in assay [2] were 1.3 nM and 35.2 nM, respectively.

`Cc1c(-c2ncco2)nc(N)n2nc(CCN3CCc4c(nnn4CC(C)(C)O)C3)nc12` [Example 1.18]: the IC50 was determined as 18.1 nM in assay [1] and 694 nM in assay [2].

On to `CC(C)c1ncc2n1CCN(CCc1nc3cc(-c4ncco4)nc(N)n3n1)C2` [Example 1.19], for which the IC50 in assay [1] was found to be 127 nM; in assay [2], 905 nM.

`Cc1c(-c2cccc(F)c2)nc(N)c2nc(CCN3CCn4c(cnc4C(C)C)C3)nn12` [Example 2.8]: the IC50 in assay [1] amounted to 160 nM; in assay [2], 48.1 nM.

On to `COc1c(F)cc(F)cc1-c1cc2nc(CCN3CCn4c(cnc4C(C)C)C3)nn2c(N)n1` [Example 2.9], for which the IC50 amounted to 636 nM in assay [1] and 248 nM in assay [2].

Take `CC(C)c1ncc2n1CCN(CCc1nc3cc(-c4cc(F)ccc4O)nc(N)n3n1)C2` [Example 2.10]: the concentration for half-maximal inhibition (IC50) worked out at 1000 nM in assay [1] and 400 nM in assay [2].

Consider `CC(C)c1ncc2n1CCN(CCc1nc3cc(-c4cc(F)ccc4F)nc(N)n3n1)C2` [Example 2.11], for which the values for the IC50 in assay [1] and in assay [2] were 246 nM and 178 nM, respectively.

On to `CC(C)c1ncc2n1CCN(CCc1nc3cc(-c4cc(F)ccc4Cl)nc(N)n3n1)C2` [Example 2.12], for which the IC50 was found to be 440 nM in assay [1] and 215 nM in assay [2].

Turning to `CC(C)c1ncc2n1CCN(CCc1nc3cc(-c4cccc(F)c4)nc(N)n3n1)C2` [Example 2.13], the results for the IC50 in assay [1] and in assay [2] were 35.4 nM and 95.5 nM, respectively.

For `CC(C)c1ncc2n1CCN(CCc1nc3cc(-c4cc(F)cc(F)c4)nc(N)n3n1)C2` [Example 2.14], the figures for the IC50 in assay [1] and in assay [2] were 362 nM and 223 nM, respectively.

As to `Cc1c(-c2cccc(F)c2)nc(N)n2nc(CCN3CCn4c(cnc4C(C)C)C3)nc12` [Example 2.15], the IC50 in assay [1] was determined as 16.4 nM; in assay [2] it was 36.8 nM.

Regarding `Cc1c(-c2cccc(F)c2)nc(N)n2nc(CCN3CCc4c(nnn4C(C)C)C3)nc12` [Example 2.16], the IC50 in assay [1] was found to be 2.3 nM; in assay [2], 73.4 nM.

`CC(C)n1nnc2c1CCN(CCc1nc3cc(-c4cccc(C#N)c4F)nc(N)n3n1)C2` [Example 2.24]: the IC50 in assay [1] was found to be 0.9 nM; in assay [2], 73.6 nM.

Take `Cc1c(-c2cncc(C(F)(F)F)c2)nc(N)c2nc(Cc3ccccc3)nn12` [Example 3.22]: the IC50 in assay [1] is 836 nM; in assay [2] it was 8700 nM.

For the compound `Cc1c(-c2cccc(Cl)c2)nc(N)c2nc(Cc3ccccc3)nn12` [Example 3.23], the IC50 in assay [1] was found to be 2.7 nM; in assay [2] it was 13.6 nM.

As for `Cc1c(-c2cc(Cl)ccc2F)nc(N)c2nc(Cc3ccccc3)nn12` [Example 3.24], the IC50 in assay [1] came out at 0.7 nM; in assay [2], 2.4 nM.

For `Cc1c(-c2cc(F)cc(F)c2)nc(N)c2nc(Cc3ccccc3)nn12` [Example 3.25], the IC50 in assay [1] came to 1.6 nM; in assay [2], 19.8 nM.

Take `Cc1c(-c2cc(F)cc(F)c2F)nc(N)c2nc(Cc3ccccc3)nn12` [Example 3.26]: the figures for the IC50 in assay [1] and in assay [2] were 2.5 nM and 2.7 nM, respectively.

`COc1ncc(-c2nc(N)c3nc(Cc4ccccc4)nn3c2C)cc1Cl` [Example 3.27]: the IC50 stood at 11 nM in assay [1] and 145 nM in assay [2].

Turning to `Cc1c(-c2cc(F)cc(Cl)c2)nc(N)c2nc(Cc3ccccc3)nn12` [Example 3.28], the results for the IC50 in assay [1] and in assay [2] were 2.9 nM and 34.4 nM, respectively.

Regarding `Cc1c(-c2cccc(F)c2F)nc(N)c2nc(Cc3ccccc3)nn12` [Example 3.29], the IC50 was determined as 4 nM in assay [1] and 39.4 nM in assay [2].

Regarding `Cc1c(-c2cccc(Cl)c2F)nc(N)c2nc(Cc3ccccc3)nn12` [Example 3.30], the IC50 is 7.6 nM in assay [1] and 46.2 nM in assay [2].

In the case of `COc1cc(F)cc(-c2nc(N)c3nc(Cc4ccccc4)nn3c2C)c1` [Example 3.31], the figures for the IC50 in assay [1] and in assay [2] were 6.2 nM and 134 nM, respectively.

As for `Cc1c(-c2cncc(Cl)c2)nc(N)c2nc(Cc3ccccc3)nn12` [Example 3.32], the IC50 in assay [1] turned out to be 13.1 nM; in assay [2], 147 nM.

`Cc1c(-c2ccc(F)c(Cl)c2)nc(N)c2nc(Cc3ccccc3)nn12` [Example 3.33]: the IC50 in assay [1] turned out to be 27.2 nM; in assay [2], 117 nM.

Take `Cc1c(-c2cc(F)c(F)cc2F)nc(N)c2nc(Cc3ccccc3)nn12` [Example 3.34]: the IC50 in assay [1] amounted to 32.2 nM; in assay [2], 95.8 nM.

Regarding `Cc1ccc(F)cc1-c1nc(N)c2nc(Cc3ccccc3)nn2c1C` [Example 3.35], the IC50 in assay [1] came out at 65.6 nM; in assay [2], 700 nM.

On to `Cc1c(-c2cc(F)c(F)c(F)c2)nc(N)c2nc(Cc3ccccc3)nn12` [Example 3.36], for which the figures for the IC50 in assay [1] and in assay [2] were 76.5 nM and 154 nM, respectively.

As to `Cc1c(-c2ccc(F)cc2)nc(N)c2nc(Cc3ccccc3)nn12` [Example 20.3, 2-benzyl-6-(4-fluorophenyl)-5-methyl-[1,2,4]triazolo[1,5-a]pyrazin-8-amine], in assay [1], the IC50 was 40 nM.

Take `Nc1nc(-c2ncco2)c(C2CC2)n2nc(Cc3ccccc3)nc12` [Example 20.4, 2-benzyl-5-cyclopropyl-6-(oxazol-2-yl)-[1,2,4]triazolo[1,5-a]pyrazin-8-amine]: the IC50 in assay [1] was 3.2 nM.

In assay [1], `Cc1c(-c2ncco2)nc(N)n2nc(Cn3cc(CCC(C)(C)O)cn3)nc12` [Example 21.3, 4-(1-((5-amino-8-methyl-7-(oxazol-2-yl)-[1,2,4]triazolo[1,5-c]pyrimidin-2-yl)methyl)-1H-pyrazol-4-yl)-2-methylbutan-2-ol] came in with an IC50 of 21.5 nM.

Compound `Cc1c(-c2ncco2)nc(N)n2nc(CCc3ccc4c(c3)nnn4C3CC(F)(F)C3)nc12` [Example 22.3, 2-(2-(1-(3,3-Difluorocyclobutyl)-1H-benzo[d][1,2,3]triazol-5-yl)ethyl)-8-methyl-7-(oxazol-2-yl)-[1,2,4]triazolo[1,5-c]pyrimidin-5-amine] showed an IC50 in assay [1] of 21.5 nM.
